Measurements reported in patent US9980943B2, “Methods of treating muscular dystrophy” (BOARD OF REGENTS OF THE NEVADA SYSTEM OF HIGHER EDUCATION, …, priority 2013, dated 2018).

Legend:
Type in all cases: cell-based, mouse
[1] = tested on: α7 integrin (LacZ reporter in α7βgal+/− myoblasts); experiment: Myoblast α7+/LacZ integrin FDG assay (Burkin assay in myoblasts, 96-well); conditions: α7+/LacZ myoblasts, 96-well
[2] = tested on: β-galactosidase in CMV-LacZ C2C12 myoblasts; experiment: CMV-LacZ secondary screen in C2C12 myoblasts (β-Gal stabilizing assay); conditions: CMV-LacZ C2C12 myoblasts
Summary of the method: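 Stable CMV-LacZ C2C12 clone; six-point curve 0.5–40 μM; duplicates.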

[3] = tested on: β-galactosidase in CMV-LacZ C2C12 myotubes; experiment: CMV-LacZ secondary screen in C2C12 myotubes (β-Gal stabilizing assay); conditions: C2C12 CMV-LacZ myotubes, fold relative to DMSO
Summary of the method: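 CMV-LacZ C2C12 line (clonal, FDG-screened); myoblasts/myotubes dosed 0.5–40 μM (0.5, 1, 5, 10, 20, 40 μM); n=2 per point; β-gal stabilization read-out.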

[4] = tested on: α7 integrin (LacZ reporter in α7+/LacZ myotubes); experiment: Myotube α7 integrin FDG assay (Burkin assay in myotubes, 96-well); conditions: myotubes

SMILES	Burkin Assay in Myoblasts, signal relative to DMSO ([1]; 0.5 uM)	Burkin Assay in Myoblasts, signal relative to DMSO ([1]; 1 uM)	Burkin Assay in Myoblasts, signal relative to DMSO ([1]; 5 uM)	Burkin Assay in Myoblasts, signal relative to DMSO ([1]; 10 uM)	Burkin Assay in Myoblasts, signal relative to DMSO ([1]; 20 uM)	Burkin Assay in Myoblasts, signal relative to DMSO ([1]; 40 uM)	CMV-LACZ in Myoblasts (β-galactosidase activity relative to DMSO) ([2]; 0.5 uM)	CMV-LACZ in Myoblasts (β-galactosidase activity relative to DMSO) ([2]; 1 uM)	CMV-LACZ in Myoblasts (β-galactosidase activity relative to DMSO) ([2]; 5 uM)	CMV-LACZ in Myoblasts (β-galactosidase activity relative to DMSO) ([2]; 10 uM)	CMV-LACZ in Myoblasts (β-galactosidase activity relative to DMSO) ([2]; 20 uM)	CMV-LACZ in Myoblasts (β-galactosidase activity relative to DMSO) ([2]; 40 uM)	CMV-LACZ in Myotubes, signal relative to DMSO ([3]; 0.5 uM)	CMV-LACZ in Myotubes, signal relative to DMSO ([3]; 1 uM)	CMV-LACZ in Myotubes, signal relative to DMSO ([3]; 5 uM)	CMV-LACZ in Myotubes, signal relative to DMSO ([3]; 10 uM)	CMV-LACZ in Myotubes, signal relative to DMSO ([3]; 20 uM)	CMV-LACZ in Myotubes, signal relative to DMSO ([3]; 40 uM)	Burkin Assay in Myotubes, α7 integrin LacZ reporter signal relative to DMSO ([4]; 0.5 uM)	Burkin Assay in Myotubes, α7 integrin LacZ reporter signal relative to DMSO ([4]; 1 uM)	further results
Cn1c(O)c(C(C#N)=C2N=c3ccccc3=N2)c2ccccc21 [MLS000536064-01]	0.8028	0.804	0.7333	1.047	0.544	0.4501	0.9105	0.7412	2.0402	1.3388	2.5396	2.4896	0.9705	1.0389	0.8894	1.1027	1.2344	1.0233	0.9046	0.9555	Burkin Assay in Myotubes, α7 integrin LacZ reporter signal relative to DMSO ([4]; 5 uM): 0.9539; Burkin Assay in Myotubes, α7 integrin LacZ reporter signal relative to DMSO ([4]; 10 uM): 1.131; Burkin Assay in Myotubes, α7 integrin LacZ reporter signal relative to DMSO ([4]; 20 uM): 0.7642; Burkin Assay in Myotubes, α7 integrin LacZ reporter signal relative to DMSO ([4]; 40 uM): 0.7073
COC(=O)c1ccc(N=Nc2ccccc2)cc1 [MLS001005712-01]	1.1047	1.17	0.926	0.8783	0.8763	0.764	1.0188	1.2385	0.8934	0.9125	1.0241	1.0230	1.0684	1.0379	0.9623	0.8075	1.1133	1.3167	0.8704	1.173	Burkin Assay in Myotubes, α7 integrin LacZ reporter signal relative to DMSO ([4]; 5 uM): 0.9472; Burkin Assay in Myotubes, α7 integrin LacZ reporter signal relative to DMSO ([4]; 10 uM): 0.939; Burkin Assay in Myotubes, α7 integrin LacZ reporter signal relative to DMSO ([4]; 20 uM): 0.7885; Burkin Assay in Myotubes, α7 integrin LacZ reporter signal relative to DMSO ([4]; 40 uM): 0.7405
CN(/C(=N/S(=O)(=O)c1cccs1)c1ccccc1)c1ccccc1 [MLS000582947-01]	1.236	0.9632	0.943	0.9807	0.9417	0.7737	0.9691	0.8991	1.1273	1.0067	0.7811	0.8819	0.8848	0.9610	0.9280	0.9127	1.0729	1.0247	0.9003	1.155	Burkin Assay in Myotubes, α7 integrin LacZ reporter signal relative to DMSO ([4]; 5 uM): 1.02; Burkin Assay in Myotubes, α7 integrin LacZ reporter signal relative to DMSO ([4]; 10 uM): 0.9759; Burkin Assay in Myotubes, α7 integrin LacZ reporter signal relative to DMSO ([4]; 20 uM): 1.102; Burkin Assay in Myotubes, α7 integrin LacZ reporter signal relative to DMSO ([4]; 40 uM): 0.791
CC(C)c1ccc(NC(=O)CN2C(=O)c3ccccc3S2(=O)=O)cc1 [MLS001229477-01]	0.8703	0.8296	1.367	0.9454	0.9634	0.9019	1.0283	1.1345	1.1078	1.1311	1.0674	0.8800	1.0126	1.1095	0.9250	0.9587	0.9622	0.9611	0.8015	0.9368	Burkin Assay in Myotubes, α7 integrin LacZ reporter signal relative to DMSO ([4]; 5 uM): 0.9702; Burkin Assay in Myotubes, α7 integrin LacZ reporter signal relative to DMSO ([4]; 10 uM): 0.9015; Burkin Assay in Myotubes, α7 integrin LacZ reporter signal relative to DMSO ([4]; 20 uM): 0.8376; Burkin Assay in Myotubes, α7 integrin LacZ reporter signal relative to DMSO ([4]; 40 uM): 0.8339
Cc1nnc(SCC(=O)c2ccc(Br)cc2)s1 [MLS000420298-01]	1.379	1.243	1.083	1.1	1.111	0.9235	1.2808	0.9383	0.8414	1.0482	0.9807	1.1930	0.9573	0.8527	1.0338	1.2388	1.3660	1.1250	0.9538	1.0464	Burkin Assay in Myotubes, α7 integrin LacZ reporter signal relative to DMSO ([4]; 5 uM): 0.9453; Burkin Assay in Myotubes, α7 integrin LacZ reporter signal relative to DMSO ([4]; 10 uM): 0.9005; Burkin Assay in Myotubes, α7 integrin LacZ reporter signal relative to DMSO ([4]; 20 uM): 0.91; Burkin Assay in Myotubes, α7 integrin LacZ reporter signal relative to DMSO ([4]; 40 uM): 1.006
O=C(Cn1nc(-c2ccc(Cl)cc2)ccc1=O)N1CCC2(CC1)OCCO2 [MLS000689492-01]	1.073	0.908	0.94	0.9431	1.083	0.9652	0.9363	1.0252	1.0863	0.8653	1.0141	1.0026	1.0853	1.2400	1.0504	1.0940	1.0444	0.9267	1.156	1.138	Burkin Assay in Myotubes, α7 integrin LacZ reporter signal relative to DMSO ([4]; 5 uM): 0.9311; Burkin Assay in Myotubes, α7 integrin LacZ reporter signal relative to DMSO ([4]; 10 uM): 0.9292; Burkin Assay in Myotubes, α7 integrin LacZ reporter signal relative to DMSO ([4]; 20 uM): 0.8836; Burkin Assay in Myotubes, α7 integrin LacZ reporter signal relative to DMSO ([4]; 40 uM): 0.7544
